Data set [1] concerns the target bovine FBP (Bos taurus, UniProt P02702). The data set is described as follows: Folate binding constant, procedure of Dunn and Foster. As to the method:
As noted above, the drug products which can be employed in the present invention include other GAR-transformylase or TS inhibitors which are capable of binding to folate binding protein. Folic acid itself has a binding constant (ng/ml) of 1.8, and lometrexol has a binding constant of 9.7 to bovine FBP. Any GAR-transformylase or TS inhibitor that binds at less than about 500 ng/ml can be utilized in the method of this invention. The folate binding constant for drug products can be readily determined by the general procedure of Dunn and Foster, Clin. Chem., 19 (10), 1101-1105 (1973).

Data set [2] deals with C3H strain of mammary adenocarcinoma. The data set is described as follows: Antitumor activity against implanted C3H mammary adenocarcinoma in mice. It counts as in vivo. As to the method: (§1) In one such test, mice are inoculated with the C3H strain of mammary adenocarcinoma by inserting a 2 mm by 2 mm section of tumor into the axillary region of the mice by trocar. In all experiments, lometrexol was administered intraperitoneally once a day for five consecutive days, starting on the day following tumor implantation. Ten animals were used at each dosage level. Antitumor activity was assessed on day ten by measuring the length and width of the tumor growth using vernier calipers, and the activity was expressed as a percent inhibition of tumor growth.

In data set [3] the test system is C3H Mice. The experiment in a line: Toxicity measured as death of tumor-bearing C3H mice. Type of data set: in vivo. As to the method:
as §1

Data set [4] concerns nasalpharyngeal carcinoma. Conditions: one subject with nasalpharyngeal carcinoma, folic acid 0.5 to 1.0 mg/day, after the 12 months of therapy.
The mark [5] stands for this setting: read-out: Binding Constant, folate binding protein.

The results in this text go back to patent EP0505640B2, “Improved therapeutic method” (ELI LILLY AND COMPANY, priority 1991, dated 1992).

Molecules are shown by their SMILES. Where two headings read alike, the source gives them in different places.

Chain of bovine FBP (P02702 20-234): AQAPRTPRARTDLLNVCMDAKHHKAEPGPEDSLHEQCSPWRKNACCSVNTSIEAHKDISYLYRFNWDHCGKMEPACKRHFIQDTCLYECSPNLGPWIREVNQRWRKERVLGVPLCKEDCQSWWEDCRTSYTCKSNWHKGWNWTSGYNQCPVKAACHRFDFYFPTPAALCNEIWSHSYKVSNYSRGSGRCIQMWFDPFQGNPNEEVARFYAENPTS

The compound `Nc1nc2c(c(=O)[nH]1)CC(CCc1ccc(C(=O)N[C@@H](CCC(=O)O)C(=O)O)cc1)CN2` (stereo partly shown) [Lometrexol, 5,10-dideazatetrahydrofolic acid] had a Kd in data set [1] of 21.9 nM. Besides, the “Antitumor Activity (% Inhibition)” value in data set [2] (Lometrexol 0.0625 mg/kg i.p. once a day for five days, two weeks on folate-free diet, assessed day ten) was determined as 0%; in data set [2] (Lometrexol 0.125 mg/kg i.p. once a day for five days, folate-free diet plus 0.0003% folate in drinking water, day ten), 13%; in data set [2] (Lometrexol 0.125 mg/kg i.p. once a day for five days, two weeks on folate-free diet, assessed day ten), 0%; in data set [2] (Lometrexol 0.25 mg/kg i.p. once a day for five days, folate-free diet plus 0.0003% folate in drinking water, day ten) it was 26%; in data set [2] (Lometrexol 0.25 mg/kg i.p. once a day for five days, two weeks on folate-free diet, assessed day ten), 21%; in data set [2] (Lometrexol 0.5 mg/kg i.p. once a day for five days, folate-free diet plus 0.0003% folate in drinking water, day ten), 48%. For the same compound, the “Antitumor Activity (% Inhibition)” value in data set [2] (Lometrexol 0.5 mg/kg i.p. once a day for five days, two weeks on folate-free diet, assessed day ten) turned out to be 88%; in data set [2] (Lometrexol 1.0 mg/kg i.p. once a day for five days, folate-free diet plus 0.0003% folate in drinking water, day ten), 97%; in data set [2] (Lometrexol 1.0 mg/kg i.p. once a day for five days, two weeks on folate-free diet, assessed day ten), 100%; in data set [2] (Lometrexol 2.0 mg/kg i.p. once a day for five days, folate-free diet plus 0.0003% folate in drinking water, day ten) it was 98%; in data set [2] (Lometrexol 4.0 mg/kg i.p. once a day for five days, folate-free diet plus 0.0003% folate in drinking water, day ten), 99%; in data set [2] (Lometrexol 6.25 mg/kg i.p. once a day for five days, folate-free diet plus 0.003% folate in drinking water, day ten) it was 91%. The “Antitumor Activity (% Inhibition)” value is listed as 89% in data set [2] (Lometrexol 12.5 mg/kg i.p. once a day for five days, folate-free diet plus 0.003% folate in drinking water, day ten); 97% in data set [2] (Lometrexol 25 mg/kg i.p. once a day for five days, folate-free diet plus 0.003% folate in drinking water, day ten); 96% in data set [2] (Lometrexol 50 mg/kg i.p. once a day for five days, folate-free diet plus 0.003% folate in drinking water, day ten). Also, the “Toxicity (Mice Dead/Total Mice)” value in data set [3] (Lometrexol 0.0625 mg/kg i.p. once a day for five days, two weeks on folate-free diet) is given as 0/10; in data set [3] (Lometrexol 0.125 mg/kg i.p. once a day for five days, folate-free diet plus 0.0003% folate in drinking water), 0/10; in data set [3] (Lometrexol 0.125 mg/kg i.p. once a day for five days, two weeks on folate-free diet), 0/10; in data set [3] (Lometrexol 0.25 mg/kg i.p. once a day for five days, folate-free diet plus 0.0003% folate in drinking water) it was 0/10; in data set [3] (Lometrexol 0.25 mg/kg i.p. once a day for five days, two weeks on folate-free diet), 0/10; in data set [3] (Lometrexol 0.5 mg/kg i.p. once a day for five days, folate-free diet plus 0.0003% folate in drinking water), 0/10. The “Toxicity (Mice Dead/Total Mice)” value is reported as 0/10 in data set [3] (Lometrexol 0.5 mg/kg i.p. once a day for five days, two weeks on folate-free diet); 0/10 in data set [3] (Lometrexol 1.0 mg/kg i.p. once a day for five days, folate-free diet plus 0.0003% folate in drinking water); 8/10 in data set [3] (Lometrexol 1.0 mg/kg i.p. once a day for five days, two weeks on folate-free diet); “lethal to the majority of the mice” in data set [3] (Lometrexol 1.0 mg/kg i.p. once a day for five days, two weeks on folate-free diet, listed as lometrexol); 0/10 in data set [3] (Lometrexol 2.0 mg/kg i.p. once a day for five days, folate-free diet plus 0.0003% folate in drinking water); 4/10 in data set [3] (Lometrexol 4.0 mg/kg i.p. once a day for five days, folate-free diet plus 0.0003% folate in drinking water). The “Toxicity (Mice Dead/Total Mice)” value in data set [3] (Lometrexol 6.25 mg/kg i.p. once a day for five days, folate-free diet plus 0.003% folate in drinking water) is given as 0/10; in data set [3] (Lometrexol 12.5 mg/kg i.p. once a day for five days, folate-free diet plus 0.003% folate in drinking water), 0/10; in data set [3] (Lometrexol 25 mg/kg i.p. once a day for five days, folate-free diet plus 0.003% folate in drinking water) it was 0/10; in data set [3] (Lometrexol 50 mg/kg i.p. once a day for five days, folate-free diet plus 0.003% folate in drinking water), 0/10. In data set [4], the “clinical evidence of disease” value was “no clinical evidence of disease”.

In the case of `Nc1nc(O)c2c(n1)NCC(CCc1ccc(C(=O)NC(CCC(=O)O)C(=O)O)s1)C2` (stereo not shown), in data set [1] (setting [5]), the Kd is 54.5 nM.

On to `Cc1nc2ccc(CN(C)c3ccc(C(=O)NC(CCC(=O)O)C(=O)O)s3)cc2c(=O)[nH]1` (stereo not shown), for which the Kd in data set [1] (setting [5]) was 534 nM.

Regarding `Nc1nc(O)c2c(n1)NCC(CCC1CCC(C(=O)NC(CCC(=O)O)C(=O)O)CC1)C2` (stereo not shown), the Kd in data set [1] (setting [5]) was 57.8 nM.

`Nc1nc2ncc(CNc3ccc(C(=O)N[C@@H](CCC(=O)O)C(=O)O)cc3)nc2c(=O)[nH]1` [Folic acid]: the Kd in data set [1] (folate binding protein, read-out: Binding Constant (converted)) was 4.08 nM.

As to `Nc1nc(O)c2c(n1)NCC(CCc1ccc(C(=O)NC(CCC(=O)O)C(=O)O)o1)C2` (stereo not shown), the Kd in data set [1] (setting [5]) was 579 nM.

Consider `C#CCN(Cc1ccc2[nH]c(N)nc(=O)c2c1)c1ccc(C(=O)NC(CCC(=O)O)C(=O)O)cc1` (stereo not shown), for which the Kd in data set [1] (setting [5]) was 25.1 nM.

`Nc1nc(O)c2c(n1)NCC(CCCc1ccc(C(=O)NC(CCC(=O)O)C(=O)O)cc1)C2` (stereo not shown) [n = 3 X = H] showed a Kd in data set [1] of 27.3 nM.
